# Results taken from US20250163119A1, “COMPOUNDS FOR THE TREATMENT OF DIABETES OR OBESITY” (Eli Lilly and Company, priority 2023, published 2025).
# *1 amine or outer side, *2 acyl side, *3 side chain or, on linkers, in order; H or OH if unused. Where a SMILES comes first, the peptide text is derived from it. Bridges are numbered along the chain shown (N, C = ends). Roman numbers before positions name the chains, in order. Side-chain parts run from the residue outwards. [ ]: non-standard residue; d: D form. The star is where a group is joined. C20 diacid = O=C(O)CCCCCCCCCCCCCCCCCCC(=O)*; C18 diacid = O=C(O)CCCCCCCCCCCCCCCCC(=O)*; γGlu = O=C(O)[C@H](CCC(=O)[*:2])N[*:1]; εLys = N[C@@H](CCCCN[*:1])C(=O)[*:2]; αMeL = CC(C)C[C@](C)(N)C(=O)O; Dap = NC[C@H](N)C(=O)O; AEEA = NCCOCCOCC(=O)O; Aib = CC(C)(N)C(=O)O
# Tests used:
# human CRHR2 = target: T1, human CRHR2 (Homo sapiens, UniProt Q13324); experiment: Human CRHR2 cAMP assay (HTRF) in HEK293 cells stably expressing human CRHR2; format: cell-based; settings: HEK293 cells overexpressing human CRHR2; relative EC50, maximum 10 nM human UCN2; mean ± SE; read-out: hCRHR2 cAMP EC50 (pM, ± SE)
# T1 construct: expressed in transfected cells
# T1 sequence (Q13324 1-438 isoform Q13324-2): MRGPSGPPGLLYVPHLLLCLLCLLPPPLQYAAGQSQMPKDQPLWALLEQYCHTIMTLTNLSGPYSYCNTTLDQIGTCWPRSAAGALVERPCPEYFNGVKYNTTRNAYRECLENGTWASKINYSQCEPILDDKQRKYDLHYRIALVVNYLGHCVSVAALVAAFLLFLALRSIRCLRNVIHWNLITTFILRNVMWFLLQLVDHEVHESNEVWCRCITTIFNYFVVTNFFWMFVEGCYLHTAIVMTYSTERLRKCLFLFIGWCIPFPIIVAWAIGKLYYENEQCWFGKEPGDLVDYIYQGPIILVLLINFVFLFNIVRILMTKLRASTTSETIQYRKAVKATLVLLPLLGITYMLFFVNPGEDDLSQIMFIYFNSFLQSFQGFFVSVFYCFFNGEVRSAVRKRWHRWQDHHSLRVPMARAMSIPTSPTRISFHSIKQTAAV
# Procedure: (§1) The corticotropin-releasing hormone (CRH) receptor 1 and 2 (CRHR1 and CRHR2) are GPCRs that were functionally coupled to Gs proteins. Stimulation of these receptors results in an increased production of intracellular cAMP, which can be detected using standard in vitro technologies. In vitro activity of peptides was measured by the amount of cAMP formed in human CRHR1 and CRHR2 overexpressed cells.
# (§2) Human CRHR1 and CRHR2 receptors were stably expressed in human embryonic kidney cells (HEK293) under control of a pcDNA expression vector. The HEK293 cell line was cultured in DMEM 1× (Gibco, 93-0152DK) supplemented with 10% FBS, 1 mM sodium pyruvate, 1×MEM NEAA, 1× GlutaMAX and 10 mM HEPES. The plasmids of human CRHR1-pQCXIP (T7364) and human CRHR2b-R2683puro (T16761) DNA were transfected into HEK293 cells using Lipo fectAMINE 3000 Transfection reagent (Invitrogen, L3000001). After 20 days under selection, the mRNA levels from different clones were measured to confirm the expression of human CRHR1 and CRHR2 genes. To determine the function of over-expressed CRHR cells, the intracellular cAMP levels in response to human UCN1 and UCN2 were measured and compared to the expression of CRHR1 and CRHR2 mRNA in each clone.
# (§3) Human CRHR1 cells were cultured in DMEM 1× (Gibco, 93-0152DK) supplemented with 10% FBS, 1 mM sodium pyruvate, 1×MEM NEAA, 1×GlutaMAX, 10 mM HEPES, and 800 μg/ml G418. Human CRHR2 cells were cultured at the same media (DMEM 1×, 10% FBS, 1 mM sodium pyruvate, 1×MEM NEAA, 1×GlutaMAX, 10 mM HEPES) in the presence of 0.5 ug/mL puromycin. Cultured cells were grown to 90% confluency and harvested. The cells were frozen at 10×10e6/ml in a mixture of […] fetal bovine serum plus 7% DMSO and stored in liquid nitrogen until use.
# (§4) On the day of the assay, the frozen cells were thawed and diluted in assay buffer (Phenol Red free MEM (Corning, 17-305-CV, lot #32121010), 0.1% Casein (Sigma C4765, lot #SLCG2120), 5 mM HEPES pH 7.4 containing 0.25 mM IBMX). 10 ul of human CRHR1 cells (25,000 cells) or 10 μL of human CRHR2 cells (5,000 cells) were dispensed into each well of white poly-D-lysine coated 384-well plates (Corning cat #354661). Test compounds diluted in DMSO were added (200 nL/well) in a 1:3 dilution series using ECHO acoustic liquid handler (Beckman). The mixture of cells and test compounds were incubated at 37° C. for 1 hour for the hCRHR1 plate, while the CRHR2 plates were incubated at room temperature for 30 min.
# (§5) The amount of intracellular cAMP was quantitated using HTRF technology (Homogeneous Time Resolved Fluorescence; Cisbio) as per vendor instructions. Briefly, 10 uL CAMP-d2 conjugate and 10 uL anti-CAMP-cryptate conjugate in lysis buffer were incubated with the treated cells at room temperature for 60 min. The HTRF signal was immediately detected using an Envision plate reader (Perkin-Elmer) to calculate the ratio of fluorescence at 665 to 620 nm.
# (§6) Raw fluorescence data for concentration curves of the peptides in Table 2 and Table 3 were converted to cAMP amount (pmol/well) using a cAMP standard curve generated for each experiment.
# human CRHR1 = target: T2, human CRHR1 (Homo sapiens, UniProt P34998); experiment: Human CRHR1 cAMP assay (HTRF) in HEK293 cells stably expressing human CRHR1; format: cell-based; settings: HEK293 cells overexpressing human CRHR1; relative EC50, maximum 66 nM human UCN1; mean ± SE; read-out: hCRHR1 cAMP EC50 (pM, ± SE)
# T2 construct: expressed in transfected cells
# T2 sequence (P34998 24-415): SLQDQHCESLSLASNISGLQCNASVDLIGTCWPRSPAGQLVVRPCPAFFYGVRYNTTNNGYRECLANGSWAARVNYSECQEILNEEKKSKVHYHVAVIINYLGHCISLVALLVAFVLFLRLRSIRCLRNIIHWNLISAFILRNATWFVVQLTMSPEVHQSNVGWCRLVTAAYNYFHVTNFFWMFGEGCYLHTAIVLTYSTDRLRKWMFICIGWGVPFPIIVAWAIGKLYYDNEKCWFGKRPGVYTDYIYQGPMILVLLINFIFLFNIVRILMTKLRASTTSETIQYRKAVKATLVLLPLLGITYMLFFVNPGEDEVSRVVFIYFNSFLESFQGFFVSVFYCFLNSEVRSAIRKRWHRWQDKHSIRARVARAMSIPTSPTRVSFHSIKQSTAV
# Procedure: as §1, §2, §3, §4, §5, §6
Compound,EC50 (human CRHR2) [pM],EC50 (human CRHR1) [pM]
"CC[C@H](C)[C@H](NC(C)=O)C(=O)N[C@H](C(=O)N[C@H](C(=O)N[C@@H](CO)C(=O)N[C@@](C)(CC(C)C)C(=O)N[C@@H](CC(=O)O)C(=O)N[C@@H](C(=O)N1CCC[C@H]1C(=O)N[C@H](C(=O)NCC(=O)N[C@@](C)(CC(C)C)C(=O)N[C@@H](CC(C)C)C(=O)N[C@@H](CCC(N)=O)C(=O)N[C@H](C(=O)N[C@@H](CCCCN)C(=O)N[C@@H](CC(C)C)C(=O)N[C@@H](CCC(=O)O)C(=O)N[C@@H](CCC(N)=O)C(=O)N[C@@H](CCC(=O)O)C(=O)N[C@@H](CCCNC(=N)N)C(=O)N[C@@H](C)C(=O)N[C@@H](CCC(=O)O)C(=O)N[C@@H](CCCCN)C(=O)N[C@@H](C)C(=O)N[C@@H](CCCNC(=N)N)C(=O)N[C@@H](CCC(N)=O)C(=O)N[C@@H](CCC(N)=O)C(=O)N[C@@H](C)C(=O)N[C@@H](CCCCNC(=O)CC[C@H](NC(=O)COCCOCCNC(=O)[C@@H](N)CCCCNC(=O)CCCCCCCCCCCCCCCCCCC(=O)O)C(=O)O)C(=O)N[C@@H](CCC(=O)O)C(=O)N[C@@H](CC(N)=O)C(=O)N[C@H](C(=O)N[C@@H](CCC(=O)O)C(=O)N[C@H](C(=O)N[C@@H](CC(C)C)C(=O)N[C@@H](C)C(=O)N[C@@H](CCC(N)=O)C(=O)N[C@H](C(N)=O)C(C)C)[C@@H](C)CC)[C@@H](C)O)[C@@H](C)CC)[C@@H](C)O)C(C)C)[C@@H](C)O)C(C)C [SEQ ID NO: 36, Ac-IVTS αMeL D (D-Val) PTG αMeL LQIKLEQERAEKARQQAK(γE-(2-[2-(2-Amino-ethoxy)-ethoxy]-acetyl)-ϵK-CO-(CH2)18-CO2H)ENTEILAQV-NH2] (Ac-IVTS[αMeL]D[dV]PTG[αMeL]LQIKLEQERAEKARQQAK([γGlu-AEEA-εLys-C20 diacid])ENTEILAQV-NH2)",4.4 ± 0.4,–
"I: Ac-GSPSIVTS[αMeL]DVPT[Aib][αMeL]LQKILEQERAEKARQQAKEAAEILAQV-NH2 / II: {C20 diacid}-EPEPEP[γGlu] (amide I:33-II:C) [SEQ ID NO: 16, Ac-GSPSIVTS αMeL DVPT Aib αMeL LQKILEQERAEKARQQAK(γE-PEPEPE-CO-(CH2)18-CO2H)EAAEILAQV-NH2]",12.5 ± 1.1,> 1e+07
"CC[C@H](C)[C@H](NC(C)=O)C(=O)N[C@H](C(=O)N[C@H](C(=O)N[C@@H](CO)C(=O)N[C@@](C)(CC(C)C)C(=O)N[C@@H](CC(=O)O)C(=O)N[C@@H](C(=O)N1CCC[C@H]1C(=O)N[C@H](C(=O)NCC(=O)N[C@@](C)(CC(C)C)C(=O)N[C@@H](CC(C)C)C(=O)N[C@@H](CCC(N)=O)C(=O)N[C@H](C(=O)N[C@@H](CCCCN)C(=O)N[C@@H](CC(C)C)C(=O)N[C@@H](CCC(=O)O)C(=O)N[C@@H](CCC(N)=O)C(=O)N[C@@H](CCC(=O)O)C(=O)N[C@@H](CCCNC(=N)N)C(=O)N[C@@H](C)C(=O)N[C@@H](CCC(=O)O)C(=O)N[C@@H](CCCCN)C(=O)N[C@@H](C)C(=O)N[C@@H](CCCNC(=N)N)C(=O)N[C@@H](CCC(N)=O)C(=O)N[C@@H](CCC(N)=O)C(=O)N[C@@H](C)C(=O)N[C@@H](CCCCNC(=O)[C@@H](N)CCCCNC(=O)CC[C@H](NC(=O)COCCOCCNC(=O)CCCCCCCCCCCCCCCCCCC(=O)O)C(=O)O)C(=O)N[C@@H](CCC(=O)O)C(=O)N[C@@H](CC(N)=O)C(=O)N[C@H](C(=O)N[C@@H](CCC(=O)O)C(=O)N[C@H](C(=O)N[C@@H](CC(C)C)C(=O)N[C@@H](C)C(=O)N[C@@H](CCC(N)=O)C(=O)N[C@H](C(N)=O)C(C)C)[C@@H](C)CC)[C@@H](C)O)[C@@H](C)CC)[C@@H](C)O)C(C)C)[C@@H](C)O)C(C)C [SEQ ID NO: 35, Ac-IVTS αMeL D (D-Val) PTG αMeL LQIKLEQERAEKARQQAK(ϵK-γE-(2-[2-(2-Amino-ethoxy)-ethoxy]-acetyl)-CO-(CH2)18-CO2H)ENTEILAQV-NH2] (Ac-IVTS[αMeL]D[dV]PTG[αMeL]LQIKLEQERAEKARQQAK([εLys-γGlu-AEEA-C20 diacid])ENTEILAQV-NH2)",5.3 ± 0.9,–

# Further compounds by falling EC50 (human CRHR2), results first:
EC50 (human CRHR2) [pM],EC50 (human CRHR1) [pM],Compound
12.8 ± 2,> 1e+07,{C18 diacid-εLys-AEEA-γGlu}-GSPSIVTS[αMeL]DVPT[Aib][αMeL]LQKILEQERAEKARQQATEAAEILAQV-NH2 [SEQ ID NO: 28]
6.6 ± 0.5,–,{C20 diacid}-[Dap][AEEA][γGlu]GSPSIVTS[αMeL]DVPT[Aib][αMeL]LEKILEQERAEKARQQATEAAEILAQV-NH2 [SEQ ID NO: 52]
5 ± 0.2,–,"CC[C@H](C)[C@H](NC(C)=O)C(=O)N[C@H](C(=O)N[C@H](C(=O)N[C@@H](CO)C(=O)N[C@@](C)(CC(C)C)C(=O)N[C@@H](CC(=O)O)C(=O)N[C@@H](C(=O)N1CCC[C@H]1C(=O)N[C@H](C(=O)NCC(=O)N[C@@](C)(CC(C)C)C(=O)N[C@@H](CC(C)C)C(=O)N[C@@H](CCC(N)=O)C(=O)N[C@H](C(=O)N[C@@H](CCCCN)C(=O)N[C@@H](CC(C)C)C(=O)N[C@@H](CCC(=O)O)C(=O)N[C@@H](CCC(N)=O)C(=O)N[C@@H](CCC(=O)O)C(=O)N[C@@H](CCCNC(=N)N)C(=O)N[C@@H](C)C(=O)N[C@@H](CCC(=O)O)C(=O)N[C@@H](CCCCN)C(=O)N[C@@H](C)C(=O)N[C@@H](CCCNC(=N)N)C(=O)N[C@@H](CCC(N)=O)C(=O)N[C@@H](CCC(N)=O)C(=O)N[C@@H](C)C(=O)N[C@@H](CCCCNC(=O)CC[C@H](NC(=O)[C@@H](N)CCCCNC(=O)COCCOCCNC(=O)CCCCCCCCCCCCCCCCCCC(=O)O)C(=O)O)C(=O)N[C@@H](CCC(=O)O)C(=O)N[C@@H](CC(N)=O)C(=O)N[C@H](C(=O)N[C@@H](CCC(=O)O)C(=O)N[C@H](C(=O)N[C@@H](CC(C)C)C(=O)N[C@@H](C)C(=O)N[C@@H](CCC(N)=O)C(=O)N[C@H](C(N)=O)C(C)C)[C@@H](C)CC)[C@@H](C)O)[C@@H](C)CC)[C@@H](C)O)C(C)C)[C@@H](C)O)C(C)C [SEQ ID NO: 37, Ac-IVTS αMeL D (D-Val) PTG αMeL LQIKLEQERAEKARQQAK(γE-ϵK-(2-[2-(2-Amino-ethoxy)-ethoxy]-acetyl)-CO-(CH2)18-CO2H)ENTEILAQV-NH2] (Ac-IVTS[αMeL]D[dV]PTG[αMeL]LQIKLEQERAEKARQQAK([γGlu-εLys-AEEA-C20 diacid])ENTEILAQV-NH2)"
